Patent US20060127957A1, “Novel biologicalcancer marker and methods for determining the cancerous or non-cancerous phenotype of cells” (priority 2002, published 2006)

Assays:
[1] = test system: p53-responsive element of mdm2; assay: p53 transactivation assay (dual-luciferase, mdm2 promoter reporter) in MEF; type: cell-based, mouse; settings: MEF treated for 10 hours, TNFα 100 ng.ml^−1, adriamycin 5 μg.ml^−1, etoposide 25 μg.ml^−1; for activation of the p53-responsive element (luciferase activity): luciferase assayed 24 hours after transfection
Protocol: A: MEF were transfected with the firefly luciferase gene under the control of the mdm2 promoter and treated for 10 hours either with TNFa adriamycin, or etoposide. The luciferase activity was assayed 24 hours after transfection. The p53 responsive element construct was transfected in combination with either p53wt, as a positive control, or with the dominant negative mutants p53-H273 or p53-H175. The luciferase activity was assayed 24 hours later. The results are shown as mean+/−S.D. of four measurements.
(§1) Human wild type p53 cDNA or its mutated forms, H175 and H273 were cloned into the BamH1 site of pCDNA3 vector (Invitrogen), then transferred in pEGFPC1 (Clontech) to give GFP-tagged proteins. Constructs expressing MYC epitope-tagged mutant Rac1, Cdc42 and RhoA proteins and their various mutants were kindly provided by P. Chavrier (Dutartre et al., 1996). The GFP fusion proteins were cloned in the pEGFP-C1 vector (Gauthier-Rouviere et al., 1998), (Ory et al., 2000), (Roux et al., 1997). The pcDNA3myc-NWASP containing the Cdc42-interacting domain of WASP was previously described in (Philips et al., 2000). The pGL2B-mdm2 plasmid in which the reporter gene luciferase is controlled by the p53-responsive element of mdm2 (Barak et al., 1994) was a kind gift of E. Yonish-Rouach. pTKRL plasmid was from Promega. TNFα, adriamycin and etoposide (Sigma) were used in all experiments at the concentration of 100 ng.ml^−1, 5 μg.ml^−1 and 25 μg.ml^−1, respectively.
p53 transactivation was measured using the dual-luciferase assay system from Promega. Cells (5×10^4) were seeded onto twelve-well plates and transfected 18 hours later in OptiMEM containing 0.440 μg of DNA (0.2 μg of appropriate GTPase plasmids, 0.2 μg of pGL2B-mdm2-luciferase plasmid and 0.04 μg of pTKRL plasmid) using 0.33 μl of Lipofectamine (Gibco-BRL) for 4 h. Cells were then left for 24 h in DMEM supplemented with 10% FCS, harvested in […] of Passive Lysis Buffer (PLB, Promega), and luciferase activity was measured following the Dual-luciferase™ Reporter Assay Protocol as recommended by Promega, using a luminometer fitted with two injectors (Berthold).
Cdc42-dependent filopodia formation was induced by bradykinin (Kozma et al., 1995; Nobes and Hall, 1995a). p53 was activated either by Tumor Necrosis Factor-a (TNFa), or using two cytotoxic drugs adriamycin and etoposide, previously shown to induce accumulation of p53 in MEF (Klefstrom et al., 1997; Lowe et al., 1993). […] Finally, we monitored the effect of p53 upregulation by TNFα, etoposide and adriamycin on Cdc42-dependent filopodia formation by bradykinin.

MEF = assay: Filopodia formation in MEF (F-actin staining, cells with at least 5 filopodia scored positive); type: cell-based, mouse; settings: pretreated for 10 hours (TNFα 100 ng.ml^−1, adriamycin 5 μg.ml^−1, etoposide 25 μg.ml^−1), followed by 12 minutes bradykinin; bradykinin alone 62%
Excerpt: as §1
Cdc42-dependent filopodia formation was induced by bradykinin (Kozma et al., 1995; Nobes and Hall, 1995a). p53 was activated either by Tumor Necrosis Factor-a (TNFa), or using two cytotoxic drugs adriamycin and etoposide, previously shown to induce accumulation of p53 in MEF (Klefstrom et al., 1997; Lowe et al., 1993).

| activation of the p53-responsive element (luciferase activity) [1] | Compound | activation of the p53-responsive element as % of the value obtained with the positive control (p53 wt) [1] [%] | MEF having filopodia (bradykinin-mediated filopodia formation after pretreatment) (MEF) [%] |
| --- | --- | --- | --- |
| twenty four-fold | COc1cc([C@@H]2c3cc4c(cc3[C@@H](O[C@@H]3O[C@@H]5CO[C@@H](C)O[C@H]5[C@H](O)[C@H]3O)[C@H]3COC(=O)[C@H]23)OCO4)cc(OC)c1O [etoposide] | 30 | 20 |
| twenty eight-fold | Tumor Necrosis Factor-a [TNFα] | 36 | 28 |

| Compound | activation of the p53-responsive element (luciferase activity) [1] | activation of the p53-responsive element as % of the value obtained with the positive control (p53 wt) [1] [%] | MEF having filopodia (bradykinin-mediated filopodia formation after pretreatment) (MEF) [%] |
| --- | --- | --- | --- |
| COc1cccc2c1C(=O)c1c(O)c3c(c(O)c1C2=O)C[C@@](O)(C(=O)CO)C[C@@H]3O[C@H]1C[C@H](N)[C@H](O)[C@H](C)O1 [adriamycin] | nineteen-fold | 23 | 16 |
